The values that follow come from patent US9302999B2, “Substituted triazoles as herbicides” (E. I. DU PONT DE NEMOURS AND COMPANY, priority 2012, dated 2016).

Holding throughout (format): in vivo
The test system of assay [1] is beggarticks (hairy beggarticks, Bidens pilosa). Kind of assay: Test E pre-/postemergence: beggarticks. The note with it: Postemergence, scale 0 to 100. An excerpt: Seeds of plant species selected from corn (Zea mays), soybean (Glycine max), velvetleaf (Abutilon theophrasti), lambsquarters (Chenopodium album), poinsettia, wild (wild poinsettia, Euphorbia heterophylla), pigweed, palmer (palmer pigweed, Amaranthus palmeri), waterhemp (common waterhemp, Amaranthus rudis), smartweed (ladysthumb smartweed, Polygonum persicaria), surinam grass (Brachiaria decumbens), crabgrass, large (large crabgrass, Digitaria sanguinalis), crabgrass, Brazil (Brazilian crabgrass, Digitaria horizontalis), panicum, fall (fall panicum, Panicum dichotomiflorum), foxtail, giant (giant foxtail, Setaria faberii), foxtail, green (green foxtail, Setaria viridis), goosegrass (Eleusine indica), johnsongrass (Sorghum halepense), ragweed (common ragweed, Ambrosia elation), barnyardgrass (Echinochloa crus-galli), sandbur (southern sandbur, Cenchrus echinatus), arrowleaf sida (Sida rhombifolia), ryegrass, Italian (Italian ryegrass, Lolium multiflorum), dayflower, (VA) (Virginia dayflower, Commelina virginica), field bindweed (Convolvulus arvensis), cocklebur (common cocklebur, Xanthium strumarium), morningglory (Ipomoea coccinea), nightshade (eastern black nightshade, Solanum ptycanthum), kochia (Kochia scoparia), nutsedge, yellow (yellow nutsedge, Cyperus esculentus) and beggarticks (hairy beggarticks, Bidens pilosa) were planted into a silt loam soil and treated preemergence with test chemicals formulated in a non-phytotoxic solvent mixture which included a surfactant. At the same time, plants selected from these crop and weed species were planted in pots containing a growing medium comprising spaghnum peat moss, vermiculite, wetting agent and starter nutrients and treated with postemergence applications of some of the test chemicals formulated in the same manner. Plants ranged in height from 2 to 18 cm for postemergence treatments (1- to 4-leaf stage).
(§1) Treated plants and controls were maintained in a greenhouse for 14 to 21 days, after which time all species were compared to controls and visually evaluated. Plant response ratings, summarized in Table E, are based on a scale of 0 to 100 where 0 is no effect and 100 is complete control. A dash (-) response means no test result.

In assay [2] the test system is barley (HORBW, Hordeum vulgare). Put plainly: Test H post-emergence, alone and in combination: barley. An excerpt:
(§2) Seeds of plant species selected from wheat (TRZAW, Triticum aestivum), barley (HORBW, Hordeum vulgare), Kochia (KCHSC, Kochia caoparia) blackgrass (ALOMY, Alopecurus myosuroides), canarygrass (PHAMI, Phalaris minor), Italian ryegrass (LOLMU, Lolium multiflorum) common lambsquarter (CHEAL, Chenopodium album), pigweed (AMARE, Amaranthus retroflexus), Common Chickweed (STEME, Stellaria media), Russian thistle (SASKR, Salsola iberica), Wild Buckwheat (POLCO, Polygonum convolvulus), Catchweed Bedstraw (GALAP, Galium aparine), Mustard (SINAR, Sinapisar arvensis), Henbit Deadnettle (LAMAM, Lamium amplexicaule), Wild Radish (RAPRA, Raphanus raphanistrum), Field Poppy (PAPRH, Papaver rhoeas), Field Violet (VIOAR, Viola arvennsis), Scentless Chamomile (MATIN Matricaria inodora) were planted into soil and treated post-emergence with test chemicals formulated in a non-phytotoxic solvent mixture. Plants were grown in a greenhouse using supplemental lighting to maintain a photoperiod of approximately 14 hours; daytime and nighttime temperatures were approximately 23°-29° and 16°-19° Celsius, respectively. Balanced fertilizer was applied through the watering system. Treated plants and controls were maintained in a greenhouse for 20 days, after which time all species were compared to controls and visually evaluated. Plant response ratings were calculated as the mean of three replicates (unless otherwise indicated), are summarized in Table G, and are based on a scale of 0 to 100 where 0 is no effect and 100 is complete control. A dash (-) response means no test result.

Assay [3] deals with Catchweed Bedstraw (GALAP, Galium aparine). Kind of assay: Test H post-emergence, alone and in combination: Catchweed Bedstraw.
Description: as §2

Assay [4] concerns Kochia (KCHSC, Kochia caoparia). Put plainly: Test H post-emergence, alone and in combination: Kochia.
Description: as §2

Assay [5] relates to blackgrass (ALOMY, Alopecurus myosuroides). Put plainly: Test H post-emergence, alone and in combination: blackgrass.
Description: as §2

For assay [6], the system named is Italian ryegrass (LOLMU, Lolium multiflorum). Kind of assay: Test H post-emergence, alone and in combination: Italian ryegrass.
Description: as §2

The subject of assay [7] is Wild Buckwheat (POLCO, Polygonum convolvulus). Kind of assay: Test H post-emergence, alone and in combination: Wild Buckwheat.
Description: as §2

For assay [8], the system named is wheat (TRZAW, Triticum aestivum). Put plainly: Test H post-emergence, alone and in combination: wheat.
Description: as §2

The test system of assay [9] is smartweed (ladysthumb smartweed, Polygonum persicaria). Kind of assay: Test F pre-/postemergence: smartweed.
Description: Seeds of plant species selected from corn (Zea mays), soybean (Glycine max), velvetleaf (Abutilon theophrasti), lambsquarters (Chenopodium album), poinsettia, wild (wild poinsettia, Euphorbia heterophylla), pigweed, palmer (palmer pigweed, Amaranthus palmeri), waterhemp (common waterhemp, Amaranthus rudis), surinam grass (Brachiaria decumbens), crabgrass, Brazil (Brazilian crabgrass, Digitaria horizontalis), panicum, fall (fall panicum Panicum dichotomiflorum), crabgrass, large (large crabgrass, Digitaria sanguinalis), foxtail, giant (giant foxtail, Setaria faberii), foxtail, green (green foxtail Setaria viridis), goosegrass (Eleusine indica), ragweed (common ragweed, Ambrosia elatior), barnyardgrass (Echinochloa crus-galli), sandbur (southern sandbur, Cenchrus echinatus), arrowleaf sida (Sida rhombifolia), ryegrass, Italian (Italian ryegrass, Lolium multiflorum), dayflower, VA (Virginia (VA) dayflower, Commelina virginica), field bindweed (Convolvulus arvensis), cocklebur (common cocklebur, Xanthium strumarium), morningglory (Ipomoea coccinea), nightshade (eastern black nightshade, Solanum ptycanthum), kochia (Kochia scoparia), nutsedge, yellow (yellow nutsedge, Cyperus esculentus), johnsongrass (Sorghum halepense), smartweed (ladysthumb smartweed, Polygonum persicaria), and beggarticks (hairy beggarticks, Bidens pilosa), were planted into a silt loam soil and treated preemergence with test chemicals formulated in a non-phytotoxic solvent mixture which included a surfactant. At the same time, plants selected from these crop and weed species and also pigweed (Amaranthus retroflexus), waterhemp_RES1 (ALS/Triazine resistant common waterhemp, Amaranthus rudis) and waterhemp_RES2 (ALS/HPPD resistant common waterhemp, Amaranthus rudis) were planted in pots containing a planting medium comprising spaghnum peat moss, vermiculite, wetting agent and starter nutrients treated with postemergence applications of some of the test chemicals formulated in the same manner. Plants ranged in height from 2 to 18 cm for postemergence treatments (1- to 4-leaf stage).
as §1

Molecules are shown by their SMILES.

On to `Cc1nn(-c2ccc(C(F)(F)F)cc2)nc1Cc1ccnc(C(F)(F)F)c1` [Compound 47, 4-[[5-methyl-2-[4-(trifluoromethyl)phenyl]-2H-1,2,3-triazol-4-yl]methyl]-2-(trifluoromethyl)pyridine], for which the “Plant response rating: Beggarticks” value came out at 50 in assay [1] (250 g ai/ha); 30 in assay [1] (16 g ai/ha); 30 in [1] (31 g ai/ha); 40 in assay [1] (62 g ai/ha); 50 in [1] (125 g ai/ha).
In the case of `Cc1nn(-c2ccc(F)cc2)nc1Oc1ccnc(C(F)(F)F)c1` [Compound 129, 4-[[2-(4-fluorophenyl)-5-methyl-2H-1,2,3-triazol-4-yl]oxy]-2-(trifluoromethyl)pyridine], the HORBW plant response in assay [2] (Rate 31) worked out at 10; in assay [2] (Rate 62) it was 15; in [2] (Rate 125) it was 15. In addition, the figures for the GALAP plant response in assay [3] (Rate 31), in assay [3] (Rate 62) and in assay [3] (Rate 125) were 65, 60 and 70, respectively. The KCHSC plant response is given as 80 in assay [4] (Rate 31), 85 in [4] (Rate 62) and 95 in assay [4] (Rate 125). Moreover, the ALOMY plant response amounted to 5 in assay [5] (Rate 31), 10 in [5] (Rate 62) and 30 in assay [5] (Rate 125). Moreover, the LOLMU plant response is 10 in assay [6] (Rate 31), 10 in assay [6] (Rate 62) and 15 in assay [6] (Rate 125). Moreover, the POLCO plant response in assay [7] (Rate 31) is 30; in assay [7] (Rate 62), 25; in assay [7] (Rate 125), 70. For the same compound, the TRZAW plant response was found to be 10 in assay [8] (Rate 31), 15 in assay [8] (Rate 62) and 15 in [8] (Rate 125).
Regarding `Cc1nn(-c2ccc(C(F)(F)F)c(F)c2)nc1Cc1ccnc(C(F)(F)F)c1` [Compound 162], the “Plant response rating, Smartweed” value in [9] (Postemergence, 4 g ai/ha, scale 0 to 100) came to 10; in assay [9] (Postemergence, 8 g ai/ha, scale 0 to 100) it was 10; in assay [9] (Postemergence, 16 g ai/ha, scale 0 to 100), 10; in assay [9] (Postemergence, 31 g ai/ha, scale 0 to 100) it was 15; in assay [9] (Postemergence, 62 g ai/ha, scale 0 to 100) it was 15; in [9] (Preemergence, 4 g ai/ha, scale 0 to 100, 0 no effect, 100 complete control), 0. Moreover, the “Plant response rating, Smartweed” value in assay [9] (Preemergence, 8 g ai/ha, scale 0 to 100, 0 no effect, 100 complete control) is 0; in assay [9] (Preemergence, 16 g ai/ha, scale 0 to 100 (0 no effect, 100 complete control)) it was 0; in assay [9] (Preemergence, 31 g ai/ha, scale 0 to 100 (0 no effect, 100 complete control)) it was 0.
